SMILES strings stand for the structures. “And” between values parts separate entries of the source, which are not always exact repeats. Equal values may be shown once. Inconclusive results are not listed. Numbered stars: 1 amine (or outer) side, 2 acyl side, 3 side chain; on linkers, the order of the positions; unused ones are H or OH. Bridge positions count the residues as written; N and C are the ends. Square brackets hold non-standard residues; d marks the D form. Peptide text beside a SMILES is read from it. I, II: the chains in the order shown. Actinocin(1to9) = Cc1c2oc3c(C)ccc(C(=O)[*:2])c3nc-2c(C(=O)[*:1])c(N)c1=O; NMeV = CN[CH](C(=O)O)C(C)C; Aze = O=C(O)[CH]1CCN1; Sar = CNCC(=O)O

The subject of this experiment is nude mice, LX-1 lung xenograft intrarenal, tumor weight T/C. Nature of the experiment: NCI In Vivo Anticancer Drug Screen. Data for tumor model Human Lung LX-1 Xenograft (intrarenal inoculation) in NU/NU Swiss (nude) mice. Particulars: endpoint: mean tumor weight change, higher = larger tumour. As to the method: The antitumor activity of compounds was measured in mice bearing transplantable tumors. Survival or tumor size were measured and the results are expressed as the measurement made in the treated group (T) divided by the measurement made in the vehicle treated control group (C). The tumor model used in this assay is Human Lung LX-1 Xenograft (intrarenal inoculation) in NU/NU Swiss (nude) mice
Background: In xenograft studies the graft and the host belong to different species.

Where [1] appears, read: dose: 200.0 mg/kg/injection, schedule: Q04DX003 (sc), vehicle: saline.
[2] abbreviates: dose: 600.0 mg/kg/injection, schedule: Q04DX003 (sc), vehicle: saline with Tween-80.
[3] abbreviates: dose: 1200.0 mg/kg/injection, schedule: Q04DX003 (sc), vehicle: saline with Tween-80.
Setting [4] is: dose: 300.0 mg/kg/injection, schedule: Q04DX003 (sc), vehicle: saline with Tween-80.

In the case of `O=C1c2ccccc2C(=O)c2c(NCCNCCO)ccc(O)c21`, the T/C was 94 % of control (dose: 12.5 mg/kg/injection, schedule: Q04DX003 (sc), vehicle: suspension in saline); 90 % of control (dose: 25.0 mg/kg/injection, schedule: Q04DX003 (sc), vehicle: saline); 108 % of control (dose: 25.0 mg/kg/injection, schedule: Q04DX003 (sc), vehicle: suspension in saline); 74 % of control (dose: 50.0 mg/kg/injection, schedule: Q04DX003 (sc), vehicle: saline); 90 % of control (dose: 50.0 mg/kg/injection, schedule: Q04DX003 (sc), vehicle: suspension in saline); 61 % of control (dose: 100.0 mg/kg/injection, schedule: Q04DX003 (sc), vehicle: saline). In addition, the T/C reads like this: (dose: 100.0 mg/kg/injection, schedule: Q04DX003 (sc), vehicle: suspension in saline) 92 % of control; under setting [1], 93 % of control.

In the case of `CN1CCN(c2ccc3nc(-c4ccc5nc(-c6ccc(O)cc6)[nH]c5c4)[nH]c3c2)CC1`, the T/C runs as follows: under setting [1], 73 % of control; (dose: 400.0 mg/kg/injection, schedule: Q04DX003 (sc), vehicle: saline) 73 % of control.

For the compound `CC1OC(OC2CC(O)(C(=O)CO)Cc3c(O)c4c(c(O)c32)C(=O)c2ccccc2C4=O)CC(N)C1O` (centres undefined), the T/C (dose: 0.5 mg/kg/injection, schedule: Q01DX010 (sc), vehicle: water) was 57 % of control and the T/C (dose: 1.0 mg/kg/injection, schedule: Q01DX010 (sc), vehicle: water) is 83 % of control.

On to `COc1cccc2c1C(=O)c1c(O)c3c(c(O)c1C2=O)CC(O)(/C(C)=N/NC(=O)CCC(=O)N/N=C(\C)C1(O)Cc2c(O)c4c(c(O)c2C(OC2CC(N)C(O)C(C)O2)C1)C(=O)c1c(OC)cccc1C4=O)CC3OC1CC(N)C(O)C(C)O1` (centres undefined), for which the T/C was 21 % of control (2×) and 27 % of control (dose: 6.25 mg/kg/injection, schedule: Q01DX010 (sc), vehicle: water); 31 % of control and 46 % of control and 51 % of control (dose: 12.5 mg/kg/injection, schedule: Q01DX010 (sc), vehicle: water).

For `O=C1SC(c2ccccc2)=S=C1c1ccccc1`, the T/C under setting [2] was 224 % of control; the T/C under setting [3] is 78 % of control; the T/C (dose: 2400.0 mg/kg/injection, schedule: Q04DX003 (sc), vehicle: saline with Tween-80) was 88 % of control.

As to `Cc1ccc(C2NC(=O)c3ccccc3N2)s1` (centres undefined), the T/C was 106 % of control (dose: 600.0 mg/kg/injection, schedule: Q04DX003 (sc), vehicle: Klucel (hydroxypropylcellulose) (HPC)); 86 % of control (dose: 1200.0 mg/kg/injection, schedule: Q04DX003 (sc), vehicle: Klucel (hydroxypropylcellulose) (HPC)); 82 % of control (dose: 2400.0 mg/kg/injection, schedule: Q04DX003 (sc), vehicle: Klucel (hydroxypropylcellulose) (HPC)); 94 % of control (dose: 4800.0 mg/kg/injection, schedule: Q04DX003 (sc), vehicle: Klucel (hydroxypropylcellulose) (HPC)).

In the case of `O=C1C(NCCO)=C(N2CC2)C(=O)C(NCCO)=C1N1CC1`, the T/C by setting is: (dose: 0.5 mg/kg/injection, schedule: Q04DX003 (ip), vehicle: saline) 117 % of control; (dose: 1.5 mg/kg/injection, schedule: Q04DX003 (sc), vehicle: suspension in saline) 203 % of control; (dose: 2.0 mg/kg/injection, schedule: Q04DX003 (ip), vehicle: saline) 61 % of control; (dose: 4.0 mg/kg/injection, schedule: Q04DX003 (ip), vehicle: saline) 77 % of control.

For `OCCN1CCN(CCCN2c3ccccc3Sc3ccc(C(F)(F)F)cc32)CC1`, the T/C runs as follows: (dose: 20.0 mg/kg/injection, schedule: Q01DX010 (sc), vehicle: saline) 69 % of control; (dose: 40.0 mg/kg/injection, schedule: Q01DX010 (sc), vehicle: saline) 75 % of control.

Regarding `COc1cc2c(c(OC)c1OC)-c1ccc(OC)c(=O)cc1[C@@H](NC(C)=O)CC2`, the T/C was 87 % of control (dose: 0.25 mg/kg/injection, schedule: Q01DX010 (sc), vehicle: saline) and 50 % of control (dose: 0.5 mg/kg/injection, schedule: Q01DX010 (sc), vehicle: saline).

As to `COC(=Nc1ccccc1)SSC(C)C`, the T/C by setting is: under setting [4], 120 % of control; under setting [2], 94 % of control; under setting [3], 107 % of control.

Take `O=[N+]([O-])/C=C\c1ccc2c(c1)OCO2`: the T/C reads like this: (dose: 12.5 mg/kg/injection, schedule: Q01DX010 (sc), vehicle: Klucel (hydroxypropylcellulose) (HPC)) 71 % of control; (dose: 25.0 mg/kg/injection, schedule: Q01DX010 (sc), vehicle: Klucel (hydroxypropylcellulose) (HPC)) 94 % of control; (dose: 800.0 mg/kg/injection, schedule: Q01DX010 (sc), vehicle: Klucel (hydroxypropylcellulose) (HPC)) 184 % of control.

`CN(N=O)C(=O)N[C@@H](C=O)[C@@H](O)[C@H](O)[C@H](O)CO`: the T/C (dose: 75.0 mg/kg/injection, schedule: Q04DX003 (sc), vehicle: other) was 32 % of control; the T/C (dose: 75.0 mg/kg/injection, schedule: Q04DX003 (sc), vehicle: saline) is 39 % of control; the T/C (dose: 150.0 mg/kg/injection, schedule: Q04DX003 (sc), vehicle: other) is 10 % of control; the T/C (dose: 150.0 mg/kg/injection, schedule: Q04DX003 (sc), vehicle: saline) is 22 % of control; the T/C (dose: 300.0 mg/kg/injection, schedule: Q04DX003 (sc), vehicle: saline) was -56 % of control.

Consider `O=c1nc(Oc2ccccc2)nc2ncccn12`, for which the T/C is 190 % of control (dose: 25.0 mg/kg/injection, schedule: Q01DX010 (sc), vehicle: saline with Tween-80); 165 % of control (dose: 50.0 mg/kg/injection, schedule: Q01DX010 (sc), vehicle: saline with Tween-80); 118 % of control (dose: 100.0 mg/kg/injection, schedule: Q01DX010 (sc), vehicle: saline with Tween-80); 210 % of control (dose: 200.0 mg/kg/injection, schedule: Q01DX010 (sc), vehicle: saline with Tween-80).

`CSc1nc(=O)[nH]nc1SCc1ccccc1`: the T/C (dose: 100.0 mg/kg/injection, schedule: Q04DX003 (sc), vehicle: Klucel (hydroxypropylcellulose) (HPC)) is 101 % of control; the T/C (dose: 200.0 mg/kg/injection, schedule: Q04DX003 (sc), vehicle: Klucel (hydroxypropylcellulose) (HPC)) is 93 % of control; the T/C (dose: 400.0 mg/kg/injection, schedule: Q04DX003 (sc), vehicle: Klucel (hydroxypropylcellulose) (HPC)) is 64 % of control; the T/C (dose: 800.0 mg/kg/injection, schedule: Q04DX003 (sc), vehicle: Klucel (hydroxypropylcellulose) (HPC)) was 68 % of control.

As for `COc1cc(NCc2ccc3nc(N)nc(N)c3c2C)cc(OC)c1OC`, the T/C reads like this: (dose: 1.25 mg/kg/injection, schedule: Q01DX010 (sc), vehicle: sodium bicarbonate) 76 % of control; (dose: 2.5 mg/kg/injection, schedule: Q01DX010 (sc), vehicle: sodium bicarbonate) 81 % of control; (dose: 5.0 mg/kg/injection, schedule: Q01DX010 (sc), vehicle: sodium bicarbonate) 36 % of control; (dose: 75.0 mg/kg/injection, schedule: Q04DX003 (sc), vehicle: water) 77 % of control; (dose: 150.0 mg/kg/injection, schedule: Q04DX003 (sc), vehicle: water) 67 % of control.

Turning to `Brc1ccc(C[N+]23CN4CN(CN(C4)C2)C3)cc1`, the T/C by setting is: (dose: 150.0 mg/kg/injection, schedule: Q04DX003 (sc), vehicle: saline with Tween-80) 91 % of control; under setting [4], 101 % of control; under setting [2], 76 % of control.

`Cc1c2oc3c(C)ccc(C(=O)NC4C(=O)NC(C(C)C)C(=O)N5CCCC5C(=O)N(C)CC(=O)N(C)C(C(C)C)C(=O)OC4C)c3nc-2c(C(=O)NC2C(=O)NC(C(C)C)C(=O)N3CCC3C(=O)N(C)CC(=O)N(C)C(C(C)C)C(=O)OC2C)c(N)c1=O` (centres undefined) (I: TV[Aze][Sar][NMeV] / II: TVP[Sar][NMeV]; ester I:1-I:C, II:1-II:C; linker I:N-II:N via Actinocin(1to9); configuration not given here): the T/C by setting is: (dose: 0.25 mg/kg/injection, schedule: Q04DX003 (sc), vehicle: saline + alcohol) 58 % of control; (dose: 0.5 mg/kg/injection, schedule: Q04DX003 (sc), vehicle: saline + alcohol) 44 % of control; (dose: 1.0 mg/kg/injection, schedule: Q04DX003 (sc), vehicle: saline + alcohol) 29 % of control.

Source of the values: PubChem BioAssay AID264 (DTP/NCI, 2004).
